This note sets out measurements from US7304050B2, “Antibacterial agents” (Pfizer Inc., priority 2003, dated 2007).

In brackets after ≈: the same amount, converted by molar mass.

The subject of one experiment is E. coli Tol C. Put plainly: Antibacterial assay (Test A), microtitration MIC, Gram negative. The note with it: Escherichia coli, read-out: Minimum Inhibitory Concentrations E. coli Tol C. It counts as cell-based. The method, then: (§1) The compounds of the present invention were tested against an assortment of Gram-negative and Gram-positive organisms using standard microtitration techniques (Cohen et. al., Antimicrob., 1985;28:766;Heifetz, et. al., Antimicrob., 1974;6: 124).

Another experiment relates to H. influenzae HI3542. Described as above. The note with it: Haemophilus influenzae; Gram Negative Bacteria; strain HI3542; read-out: Minimum Inhibitory Concentrations H. influenzae HI3542. It counts as cell-based. The method, then: as §1
Another experiment relates to M. catarrhalis BC3534. The description is as above. It counts as cell-based. The note with it: Moraxella catarrhalis; Gram Negative Bacteria; strain BC3534; read-out: Minimum Inhibitory Concentrations M. catarrhalis BC3534. On the procedure: as §1
Another experiment deals with E. faecalis MGH-2. Put plainly: Antibacterial assay (Test A), microtitration MIC, Gram positive. It counts as cell-based. As to conditions: Enterococcus faecalis, MGH2; Gram Positive Bacteria; strain MGH-2; read-out: Minimum Inhibitory Concentrations E. faecalis MGH-2. On the procedure: as §1
The next experiment has as its system S pyogenes C203. The description is as above. The experiment is classed as cell-based. The note with it: Gram Positive Bacteria; strain C203; read-out: Minimum Inhibitory Concentrations S pyogenes C203. The method, then: as §1
The next experiment deals with S. aureus UC-76. The description is as above. As to conditions: Staphylococcus aureus, UC76; Gram Positive Bacteria; strain UC-76; read-out: Minimum Inhibitory Concentrations S. aureus UC-76. The experiment is classed as cell-based. On the procedure:
as §1

Experiment [1] has as its system E. coli transcription and translation (TnT). The experiment is classed as biochemical.

With `CC(=O)NC[C@H]1CN(c2ccc3c(c2)CCN(c2c(F)cc4c(=O)c(C(=O)O)cn(C5CC5)c4c2Cl)CC3)C(=O)O1` [Example 10, 7-{7-[5-(Acetylamino-methyl)-2-oxo-oxazolidin-3-yl]-1,2,4,5-tetrahydro-benzo[d]azepin-3-yl}-8-chloro-1-cyclopropyl-6-fluoro-4-oxo-1,4-dihydro-quinoline-3-carboxylic Acid], the MIC in the experiment with E. coli Tol C is 1 µg/mL (≈ 1.72 µM); in the experiment on H. influenzae HI3542 it was 0.06 µg/mL (≈ 0.103 µM); with M. catarrhalis BC3534, 0.13 µg/mL (≈ 0.223 µM); in the experiment with E. faecalis MGH-2, 0.25 µg/mL (≈ 0.429 µM); with S pyogenes C203, 0.25 µg/mL (≈ 0.429 µM); in the experiment on S. aureus UC-76 it was 0.06 µg/mL (≈ 0.103 µM). Also, in experiment [1], the “Inhibitory concentration in E. coli cell-free transcription/translation (TnT) assay” value came out at 5.4 µg/mL.

Turning to `CC(=O)NC[C@H]1CN(c2ccc3c(c2)CCN(c2cc4c(c(C)c2F)c(=O)c(C(=O)O)cn4C2CC2)CC3)C(=O)O1` [Example 11, 7-{7-[5-(Acetylamino-methyl)-2-oxo-oxazolidin-3-yl]-1,2,4,5-tetrahydro-benzo[d]azepin-3-yl}-1-cyclopropyl-6-fluoro-5-methyl-4-oxo-1,4-dihydro-quinoline-3-carboxylic Acid], the MIC in the experiment on E. coli Tol C turned out to be 8 µg/mL (≈ 14.2 µM); in the experiment on H. influenzae HI3542 it was 0.06 µg/mL (≈ 0.107 µM); in the experiment on M. catarrhalis BC3534, 0.5 µg/mL (≈ 0.889 µM); in the experiment with E. faecalis MGH-2, 8 µg/mL (≈ 14.2 µM); in the experiment with S pyogenes C203, 16 µg/mL (≈ 28.4 µM); in the experiment with S. aureus UC-76 it was 0.06 µg/mL (≈ 0.107 µM). Further, the “Inhibitory concentration in E. coli cell-free transcription/translation (TnT) assay” value in experiment [1] was found to be 10 µg/mL.

For the compound `CC(=O)NC[C@H]1CN(c2ccc3c(c2)CCN(c2c(F)cc4c(=O)c(C(=O)O)cn(C5CC5)c4c2F)CC3)C(=O)O1` [Example 12, 7-{7-[5-(Acetylamino-methyl)-2-oxo-oxazolidin-3-yl]-1,2,4,5-tetrahydro-benzo[d]azepin-3-yl}-1-cyclopropyl-6,8-difluoro-4-oxo-1,4-dihydro-quinoline-3-carboxylic Acid], the MIC with E. coli Tol C stood at 4 µg/mL (≈ 7.06 µM); in the experiment with H. influenzae HI3542, 0.06 µg/mL (≈ 0.106 µM); in the experiment on M. catarrhalis BC3534, 0.25 µg/mL (≈ 0.441 µM); in the experiment with E. faecalis MGH-2, 1 µg/mL (≈ 1.77 µM); in the experiment on S pyogenes C203, 1 µg/mL (≈ 1.77 µM); in the experiment on S. aureus UC-76, 0.25 µg/mL (≈ 0.441 µM). The “Inhibitory concentration in E. coli cell-free transcription/translation (TnT) assay” value in experiment [1] was 9.3 µg/mL.

Consider `CC(=O)NC[C@H]1CN(c2ccc3c(c2)CCN(c2nc4c(cc2F)c(=O)c(C(=O)O)cn4C2CC2)CC3)C(=O)O1` [Example 14, 7-{7-[5-(Acetylamino-methyl)-2-oxo-oxazolidin-3-yl]-1,2,4,5-tetrahydro-benzo[d]azepin-3-yl}-1-cyclopropyl-6-fluoro-4-oxo-1,4-dihydro-[1,8]naphthyridine-3-carboxylic Acid], for which the MIC in the experiment with E. coli Tol C came out at 16 µg/mL (≈ 29.1 µM); in the experiment on H. influenzae HI3542, 0.06 µg/mL (≈ 0.109 µM); with M. catarrhalis BC3534, 2 µg/mL (≈ 3.64 µM); in the experiment on E. faecalis MGH-2 it was 16 µg/mL (≈ 29.1 µM); in the experiment with S pyogenes C203, 8 µg/mL (≈ 14.6 µM); in the experiment with S. aureus UC-76 it was 0.5 µg/mL (≈ 0.91 µM). Moreover, in experiment [1], the “Inhibitory concentration in E. coli cell-free transcription/translation (TnT) assay” value was determined as 15 µg/mL.

Regarding `CC(=O)NC[C@H]1CN(c2ccc3c(c2)CCCN(c2cc4c(cc2F)c(=O)c(C(=O)O)cn4C2CC2)C3)C(=O)O1` [Example 16, 7-{7-[5-(Acetylamino-methyl)-2-oxo-oxazolidin-3-yl]-1,3,4,5-tetrahydro-benzo[c]azepin-2-yl}-1-cyclopropyl-6-fluoro-4-oxo-1,4-dihydro-quinolne-3-carboxylic Acid], the MIC was determined as 64 µg/mL (≈ 117 µM) in the experiment with E. coli Tol C; 0.125 µg/mL (≈ 0.228 µM) with H. influenzae HI3542; 16 µg/mL (≈ 29.2 µM) in the experiment on M. catarrhalis BC3534; 32 µg/mL (≈ 58.3 µM) in the experiment on E. faecalis MGH-2; 4 µg/mL (≈ 7.29 µM) in the experiment on S pyogenes C203; 8 µg/mL (≈ 14.6 µM) with S. aureus UC-76. Besides, the “Inhibitory concentration in E. coli cell-free transcription/translation (TnT) assay” value in experiment [1] is 10 µg/mL.
